In patent US12459951B2, “Compounds that interact with RAS superfamily proteins for treatment of cancers, inflammatory diseases, rasopathies, and fibrotic disease” (SHY Therapeutics, LLC, priority 2022, dated 2025):
Where two headings read alike, the source gives them in different places.

What was measured:
MAPK p38 phosphorylation = experiment: MAPK p38 Activation Assay (western blot), Panc-1; format: cell-based, human; conditions: at 10 μM, Panc-1 pancreatic cancer cell line; starred symbols = activation
How it was run: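 Panc-1 cells (KRas G12D) were treated with compound for 6 h at 37 °C, at 10 μM or as serial dilutions for IC50, with 0.3% DMSO. Method 1 used overnight serum-starved cells (0.5% FBS) stimulated with 1.5 ng/ml EGF for 15 min; Method 2 used unstimulated cells in 10% FBS. Phospho-p38 (Thr180/Tyr182) was detected by western blot.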

[1] = test system: MiaPaca-2 (expressing KRAS G12C mutant); experiment: Proliferation Assay (Cell Viability Assay); format: cell-based; conditions: Homo sapiens, MIA PaCa-2
How it was run: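 After 2–4 days' exposure at 37 °C, 5% CO2 to a single 10 μM final concentration or a dilution series (IC50), percent proliferation inhibition was derived from CellTiter 96 Aqueous One viability readings. The medium contained 0.3% DMSO and 10% FBS. KRAS G12C MiaPaca-2 cells were plated at 2000–5000/well the day before.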

[2] = read-out: Proliferation in MiaPaca-2: IC50

IC50 [1, 2]	IC50 ([1]; Proliferation assay, MiaPaca-2, read-out: MiaPaca-2 IC50 (nM) Pancreatic)	Structure (SMILES)	% inh of MAPK p38 in Panc-1 (MAPK p38 phosphorylation)
> 1000 nM		CO[C@H]1CC[C@@H](Nc2nc(-c3ccccn3)nn3cc(-c4ccn(C(C)C)n4)c(-c4ccccc4)c23)C1 (racemic) [Compound 24, rac 6-(1-Isopropyl-1H-pyrazol-3-yl)-N-((1R,3S)-3-methoxycyclopentyl)-5-phenyl-2-(pyridin-2-yl)pyrrolo[2,1-f][1,2,4]triazin-4-amine]	H* (H* ≥ 100% activation)
510 to 1000 nM		COC[C@@H]1CC[C@@H]1CNc1nc(-c2ccccn2)nn2cc(-c3ccn(C(C)C)n3)c(-c3ccccc3)c12 (racemic) [Compound 26, rac 6-(1-Isopropyl-1H-pyrazol-3-yl)-N-(((1S,2R)-2-(methoxymethyl)cyclobutyl)methyl)-5-phenyl-2-(pyridin-2-yl)pyrrolo[2,1-f][1,2,4]triazin-4-amine]	H* (H* ≥ 100% activation)
510 to 1000 nM		COc1cccc(-c2cn3nc(-c4nccn4C)nc(N[C@@H]4CC[C@H](OC)C4)c3c2-c2ccccc2)c1Cl (racemic) [Compound 33, rac 6-(2-Chloro-3-methoxyphenyl)-N-((1R,3S)-3-methoxycyclopentyl)-2-(1-methyl-1H-imidazol-2-yl)-5-phenylpyrrolo[2,1-f][1,2,4]triazin-4-amine]	H (H = 100% inhibition)
> 1000 nM		COc1cccc(-c2cn3nc(-c4nccn4C)nc(N[C@@H]4CC[C@@H](OC)C4)c3c2-c2ccccc2)c1F (racemic) [Compound 43, rac 6-(2-Fluoro-3-methoxyphenyl)-N-((1R,3R)-3-methoxycyclopentyl)-2-(1-methyl-1H-imidazol-2-yl)-5-phenylpyrrolo[2,1-f][1,2,4]triazin-4-amine]	H* (H* ≥ 100% activation)
> 1000 nM		COc1cccc(-c2cn3nc(-c4nccn4C)nc(N[C@@H]4CC[C@@H](OC)C4)c3c2-c2ccccn2)c1F (racemic) [Compound 46, rac 6-(2-Fluoro-3-methoxyphenyl)-N-((1R,3R)-3-methoxycyclopentyl)-2-(1-methyl-1H-imidazol-2-yl)-5-(pyridin-2-yl)pyrrolo[2,1-f][1,2,4]triazin-4-amine]	H (H = 100% inhibition)
> 1000 nM		COc1cccc(Nc2nc(-c3nccn3C)nn3cc(-c4ccn(C(C)C)n4)c(-c4ccccc4)c23)n1 [Compound 23, 6-(1-Isopropyl-1H-pyrazol-3-yl)-N-(6-methoxypyridin-2-yl)-2-(1-methyl-1H-imidazol-2-yl)-5-phenylpyrrolo[2,1-f][1,2,4]triazin-4-amine]	H* (H* ≥ 100% activation)
> 1000 nM		COc1cccc(-c2cn3nc(-c4nccn4C)nc(N[C@H]4C[C@@H](OC)C4)c3c2-c2ccccc2)c1Cl [Compound 31, 6-(2-Chloro-3-methoxyphenyl)-N-((1s,3s)-3-methoxycyclobutyl)-2-(1-methyl-1H-imidazol-2-yl)-5-phenylpyrrolo[2,1-f][1,2,4]triazin-4-amine]	H* (H* ≥ 100% activation)
< 150 nM		Cc1c(-c2ccn(C)n2)cn2nc(-c3nccn3C)nc(Nc3cc(-c4ccccc4)[nH]n3)c12 [Compound 263, 5-Methyl-2-(1-methyl-1H-imidazol-2-yl)-6-(1-methyl-1H-pyrazol-3-yl)-N-(5-phenyl-1H-pyrazol-3-yl)pyrrolo[2,1-f][1,2,4]triazin-4-amine]	
< 150 nM		Cc1c(-c2ccn(C)n2)cn2nc(-c3nccn3C)nc(Nc3cc(-c4ccncc4)[nH]n3)c12 [Compound 266, 5-Methyl-2-(1-methyl-1H-imidazol-2-yl)-6-(1-methyl-1H-pyrazol-3-yl)-N-(5-(pyridin-4-yl)-1H-pyrazol-3-yl)pyrrolo[2,1-f][1,2,4]triazin-4-amine]	
150 to 500 nM		COc1ccnc(Nc2nc(-c3nccn3C)nn3cc(-c4ccn(C)n4)c(C4CC4)c23)c1 [Compound 276, 5-Cyclopropyl-N-(4-methoxypyridin-2-yl)-2-(1-methyl-1H-imidazol-2-yl)-6-(1-methyl-1H-pyrazol-3-yl)pyrrolo[2,1-f][1,2,4]triazin-4-amine]	

More lines, now with the values behind:

Structure (SMILES)	IC50 [1, 2]	IC50 ([1]; Proliferation assay, MiaPaca-2, read-out: MiaPaca-2 IC50 (nM) Pancreatic)	% inh of MAPK p38 in Panc-1 (MAPK p38 phosphorylation)
COCC1CCN(c2nc(-c3ccccn3)nn3cc(-c4ccn(C(C)C)n4)c(-c4ccccc4)c23)C1 (racemic) [Compound 25, rac 6-(1-Isopropyl-1H-pyrazol-3-yl)-4-(3-(methoxymethyl)pyrrolidin-1-yl)-5-phenyl-2-(pyridin-2-yl)pyrrolo[2,1-f][1,2,4]triazine]	> 1000 nM		H* (H* ≥ 100% activation)
COC1CCCN(c2nc(-c3ccccn3)nn3cc(-c4ccn(C(C)C)n4)c(-c4ccccc4)c23)C1 (racemic) [Compound 27, rac 6-(1-Isopropyl-1H-pyrazol-3-yl)-4-(3-methoxypiperidin-1-yl)-5-phenyl-2-(pyridin-2-yl)pyrrolo[2,1-f][1,2,4]triazine]	> 1000 nM		H* (H* ≥ 100% activation)
CO[C@H]1CC[C@@H](Nc2nc(-c3nccn3C)nn3cc(-c4ccn(C(C)C)n4)c(C(C)C)c23)C1 (racemic) [Compound 36, rac 5-Isopropyl-6-(1-isopropyl-1H-pyrazol-3-yl)-N-((1R,3S)-3-methoxycyclopentyl)-2-(1-methyl-1H-imidazol-2-yl)pyrrolo[2,1-f][1,2,4]triazin-4-amine]	> 1000 nM		H* (H* ≥ 100% activation)
COc1cccc(-c2cn3nc(-c4nccn4C)nc(O)c3c2-c2ccccc2)c1Cl [Compound 28, 6-(2-Chloro-3-methoxyphenyl)-2-(1-methyl-1H-imidazol-2-yl)-5-phenylpyrrolo[2,1-f][1,2,4]triazin-4-ol]	> 1000 nM		H* (H* ≥ 100% activation)
COCCNc1nc(-c2nccn2C)nn2cc(-c3cccc(OC)c3Cl)c(-c3ccccc3)c12 [Compound 29, 6-(2-Chloro-3-methoxyphenyl)-N-(2-methoxyethyl)-2-(1-methyl-1H-imidazol-2-yl)-5-phenylpyrrolo[2,1-f][1,2,4]triazin-4-amine]	510 to 1000 nM		H (H = 100% inhibition)
COCCCNc1nc(-c2nccn2C)nn2cc(-c3cccc(OC)c3Cl)c(-c3ccccc3)c12 [Compound 30, 6-(2-Chloro-3-methoxyphenyl)-N-(3-methoxypropyl)-2-(1-methyl-1H-imidazol-2-yl)-5-phenylpyrrolo[2,1-f][1,2,4]triazin-4-amine]	510 to 1000 nM		F (F = 31-74% inhibition)
Cc1c(-c2ccn(C)n2)cn2nc(-c3nccn3C)nc(Nc3cc(-c4cccnc4)[nH]n3)c12 [Compound 264, 5-Methyl-2-(1-methyl-1H-imidazol-2-yl)-6-(1-methyl-1H-pyrazol-3-yl)-N-(5-(pyridin-3-yl)-1H-pyrazol-3-yl)pyrrolo[2,1-f][1,2,4]triazin-4-amine]	150 to 500 nM		
Cc1c(-c2ccn(C)n2)cn2nc(-c3nccn3C)nc(Nc3cc(-c4ccccn4)[nH]n3)c12 [Compound 265, 5-Methyl-2-(1-methyl-1H-imidazol-2-yl)-6-(1-methyl-1H-pyrazol-3-yl)-N-(5-(pyridin-2-yl)-1H-pyrazol-3-yl)pyrrolo[2,1-f][1,2,4]triazin-4-amine]	< 150 nM		
Cc1[nH]nc(Nc2nc(-c3nccn3C)nn3cc(-c4ccn(C)n4)c(C)c23)c1C [Compound 267, N-(4,5-Dimethyl-1H-pyrazol-3-yl)-5-methyl-2-(1-methyl-1H-imidazol-2-yl)-6-(1-methyl-1H-pyrazol-3-yl)pyrrolo[2,1-f][1,2,4]triazin-4-amine]	< 150 nM	1 to 10 nM	
Cc1c(-c2ccn(C)n2)cn2nc(-c3nccn3C)nc(Nc3cc(C(C)C)[nH]n3)c12 [Compound 268, N-(5-Isopropyl-1H-pyrazol-3-yl)-5-methyl-2-(1-methyl-1H-imidazol-2-yl)-6-(1-methyl-1H-pyrazol-3-yl)pyrrolo[2,1-f][1,2,4]triazin-4-amine]	< 150 nM		
COc1cccc(-c2cn3nc(-c4nccn4C)nc(N[C@H]4C[C@@H](OC)C4)c3c2-c2ccccc2)c1C [Compound 269, 6-(3-Methoxy-2-methylphenyl)-N-((1s,3s)-3-methoxycyclobutyl)-2-(1-methyl-1H-imidazol-2-yl)-5-phenylpyrrolo[2,1-f][1,2,4]triazin-4-amine]	510 to 1000 nM		
COc1ccc(F)c(-c2cn3nc(-c4nccn4C)nc(N[C@H]4C[C@H](OC)C4)c3c2-c2ccccc2)c1F [Compound 273, 6-(2,6-Difluoro-3-methoxyphenyl)-N-((1r,3r)-3-methoxycyclobutyl)-2-(1-methyl-1H-imidazol-2-yl)-5-phenylpyrrolo[2,1-f][1,2,4]triazin-4-amine]	> 1000 nM		
COc1cccc(-c2cn3nc(-c4nccn4C)nc(N[C@H]4C[C@H](OC)C4)c3c2-c2ccccn2)c1C [Compound 274, 6-(3-Methoxy-2-methylphenyl)-N-((1r,3r)-3-methoxycyclobutyl)-2-(1-methyl-1H-imidazol-2-yl)-5-(pyridin-2-yl)pyrrolo[2,1-f][1,2,4]triazin-4-amine]	150 to 500 nM		
CO[C@H]1C[C@H](Nc2nc(-c3nccn3C)nn3cc(-c4ccn(C)n4)c(C4CC4)c23)C1 [Compound 275, 5-Cyclopropyl-N-((1r,3r)-3-methoxycyclobutyl)-2-(1-methyl-1H-imidazol-2-yl)-6-(1-methyl-1H-pyrazol-3-yl)pyrrolo[2,1-f][1,2,4]triazin-4-amine]	> 1000 nM		
